# Laboratory results taken from publication PMC12081877 (Nature Communications, 2025).
# Experiments:
# [1] = in vitro; conditions: human, Caco-2, Caco-2 permeability Papp A to B
# [2] = system: M^pro; conditions: cited from earlier work
Compound,Papp A→B [1],IC50 [2]
Cn1cnc(Cn2c(=O)[nH]/c(=N\c3cc4cn(C)nc4cc3Cl)n(Cc3cc(F)c(F)cc3F)c2=O)n1 [Ensitrelvir],0.42 ×10⁻⁶ cm/s,–
C[C@H](NC(=O)[C@@H](c1cccnc1)N(C(=O)C(Cl)Cl)c1ccc(-c2ccccc2)cc1)c1ccccc1 [Jun9-62-2R],–,430 nM
CC(C)(C)[C@H](NC(=O)C(F)(F)F)C(=O)N1C[C@H]2[C@@H]([C@H]1C(=O)N[C@H](C#N)C[C@@H]1CCNC1=O)C2(C)C [Nirmatrelvir],< 0.1 ×10⁻⁶ cm/s,–
